# US12344595B2, “2-amino-n-phenyl-nicotinamides as NAV1.8 inhibitors” (Merck Sharp & Dohme LLC, priority 2018, dated 2025)
# Biological target: human Nav1.8 (Homo sapiens (Human), UniProt Q9Y5Y9)
# Assay: Nav1.8 Qube automated patch-clamp assay
# Type: cell-based
# Conditions: Nav1.8 Qube Assay; human Nav1.8 channels stably expressed in HEK 293 cells
# Procedure, shortened: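 IC50 values came from Hill fitting of peak currents: pulse 1 for resting-state and pulse 10 for inactivated-state inhibition. Currents were recorded in stably transfected HEK293 cells at room temperature, with ten 20 ms steps to 10 mV at 1 Hz from a −90 mV hold. External solution was 150 mM NaCl-based; internal solution was CsF/CsCl.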
# Sequence of human Nav1.8 (Q9Y5Y9 whole entry): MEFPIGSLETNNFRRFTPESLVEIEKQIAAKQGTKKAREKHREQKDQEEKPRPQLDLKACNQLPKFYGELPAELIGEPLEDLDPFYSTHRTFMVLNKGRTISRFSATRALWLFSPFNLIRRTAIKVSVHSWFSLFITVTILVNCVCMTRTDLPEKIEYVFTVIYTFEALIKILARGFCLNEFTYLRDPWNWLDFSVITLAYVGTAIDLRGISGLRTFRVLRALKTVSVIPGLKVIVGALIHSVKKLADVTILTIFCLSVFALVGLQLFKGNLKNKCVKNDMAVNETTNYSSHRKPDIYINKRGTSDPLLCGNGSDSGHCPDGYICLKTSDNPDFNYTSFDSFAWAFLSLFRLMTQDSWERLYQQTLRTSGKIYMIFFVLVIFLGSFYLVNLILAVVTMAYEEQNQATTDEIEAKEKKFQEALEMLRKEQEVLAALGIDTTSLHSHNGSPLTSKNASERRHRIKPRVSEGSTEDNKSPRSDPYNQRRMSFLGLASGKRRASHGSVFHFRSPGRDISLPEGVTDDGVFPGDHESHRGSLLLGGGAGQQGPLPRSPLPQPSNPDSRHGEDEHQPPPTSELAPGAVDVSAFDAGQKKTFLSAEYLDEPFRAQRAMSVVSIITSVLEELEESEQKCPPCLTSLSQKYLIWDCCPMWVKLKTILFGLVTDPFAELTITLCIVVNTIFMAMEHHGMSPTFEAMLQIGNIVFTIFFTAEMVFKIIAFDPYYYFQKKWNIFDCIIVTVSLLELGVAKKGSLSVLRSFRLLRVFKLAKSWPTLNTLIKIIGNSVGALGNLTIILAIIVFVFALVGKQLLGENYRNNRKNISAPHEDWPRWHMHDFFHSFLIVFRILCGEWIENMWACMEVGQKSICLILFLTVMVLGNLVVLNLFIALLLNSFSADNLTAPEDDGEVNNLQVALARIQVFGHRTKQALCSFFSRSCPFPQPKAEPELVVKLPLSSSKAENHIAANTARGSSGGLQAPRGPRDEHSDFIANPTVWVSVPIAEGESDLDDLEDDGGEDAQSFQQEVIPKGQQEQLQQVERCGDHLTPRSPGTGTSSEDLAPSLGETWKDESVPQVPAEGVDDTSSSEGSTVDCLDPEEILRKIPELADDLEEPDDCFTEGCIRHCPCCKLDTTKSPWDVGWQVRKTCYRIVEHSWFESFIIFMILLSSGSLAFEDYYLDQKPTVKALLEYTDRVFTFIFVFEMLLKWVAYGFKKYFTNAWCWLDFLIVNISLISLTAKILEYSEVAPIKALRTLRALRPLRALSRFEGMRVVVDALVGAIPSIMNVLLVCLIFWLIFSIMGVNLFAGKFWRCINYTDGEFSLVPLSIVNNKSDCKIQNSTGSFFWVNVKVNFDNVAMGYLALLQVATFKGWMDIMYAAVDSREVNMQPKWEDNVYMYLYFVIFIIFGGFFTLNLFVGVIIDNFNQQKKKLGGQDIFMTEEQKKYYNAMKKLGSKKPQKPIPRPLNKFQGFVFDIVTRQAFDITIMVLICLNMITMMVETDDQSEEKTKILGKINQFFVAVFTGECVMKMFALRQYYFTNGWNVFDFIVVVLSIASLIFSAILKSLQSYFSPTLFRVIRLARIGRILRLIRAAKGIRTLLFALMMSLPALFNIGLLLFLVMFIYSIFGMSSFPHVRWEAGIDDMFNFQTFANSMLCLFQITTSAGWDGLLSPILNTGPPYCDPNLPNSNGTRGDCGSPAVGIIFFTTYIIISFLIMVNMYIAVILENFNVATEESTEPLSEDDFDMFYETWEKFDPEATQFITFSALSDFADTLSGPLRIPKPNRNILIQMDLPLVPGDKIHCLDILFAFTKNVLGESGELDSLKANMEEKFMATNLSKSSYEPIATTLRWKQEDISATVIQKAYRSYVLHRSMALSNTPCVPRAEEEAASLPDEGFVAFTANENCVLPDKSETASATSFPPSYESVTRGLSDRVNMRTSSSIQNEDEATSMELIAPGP
row,Structure (SMILES),IC50 [nM]
1,"NS(=O)(=O)c1cccc(NC(=O)c2cc(C(F)(F)F)cnc2N2CCCC(O)CC2)c1 (stereo not drawn) [Example 65, 2-(4-hydroxyazepan-1-yl)-N-(3-sulfamoyl-phenyl)-5-(trifluoro-methyl)pyridine-3-carboxamide]",2210
2,"NS(=O)(=O)c1cccc(NC(=O)c2cc(C(F)(F)F)cnc2N2CCC(C(F)F)CC2)c1 [Example 50, 2-[4-(difluoromethyl)-1-piperidyl]-N-(3-sulfamoylphenyl)-5-(trifluoromethyl)-pyridine-3-carboxamide]",239
3,"COC(=O)C1CCCN(c2ncc(C(F)(F)F)cc2C(=O)Nc2cccc(S(N)(=O)=O)c2)CC1 (stereo not drawn) [Example 48, methyl 1-[3-[(3-sulfamoylphenyl)-carbamoyl]-5-(tri-fluoromethyl)-2-pyridyl]azepane-4-carboxylate]",161
4,"NS(=O)(=O)c1cccc(NC(=O)c2cc(C(F)(F)F)cnc2N2CCO[C@H](C(F)(F)F)C2)c1 [Example 140, N-(3-sulfamoylphenyl)-5-(trifluoromethyl)-2-[(2S)-2-(trifluoro-methyl)--morpholin-4-yl]pyridine-3-carboxamide]",83
5,"NS(=O)(=O)c1cccc(NC(=O)c2cc(C(F)(F)F)cnc2N2CCO[C@@H](C(F)(F)F)C2)c1 [Example 141, N-(3-sulfamoylphenyl)-5-(trifluoromethyl)-2-[(2R)-2-(trifluoro-methyl)morpholin-4-yl]pyridine-3-carboxamide]",553
6,"C[Si](C)(C)c1cnc(N2CCC3(CC2)COC3)c(C(=O)Nc2cccc(S(N)(=O)=O)c2)c1 [Example 87, 2-(2-oxa-7-azaspiro-[3.5]nonan-7-yl)-N-(3-sulfamoylphenyl)-5-(trimethylsilyl)-nicotinamide]",7880
7,"NS(=O)(=O)c1cccc(NC(=O)c2cc(C(F)(F)F)cnc2N2CC3CC(F)(F)C3C2)c1 (single isomer, unassigned) [Example 136, 2-[(1R,5S or 1S,5R)-6,6-difluoro-3-azabicyclo[3.2.0]heptan-3-yl]-N-(3-sulfamoyl-phenyl)-5-(trifluoromethyl)-pyridine-3-carboxamide]",87
8,"O=C(Nc1cccc(S(=O)(=O)Nc2ccncn2)c1)c1cc(C(F)(F)F)cnc1N1CCCCCC1 [Example 151, 2-(azepan-1-yl)-3-((3-(N-(pyrimidin-4-yl)sulfamoyl)phenyl)carbamoyl)-5-(trifluoromethyl)pyridin-1-ium]",687
9,"Cc1nc(N2CCCCCC2)c(C(=O)Nc2cccc(C(N)=O)c2)cc1C#N [Example 178, 2-(azepan-1-yl)-N-(3-carbamoylphenyl)-5-cyano-6-methyl-pyridine-3-carboxamide]",54
10,"NC(=O)c1cccc(NC(=O)c2cc(Br)cnc2N2CCCCCC2)c1 [Example 38, 2-(azepan-1-yl)-5-bromo-N-(3-carbamoyl-phenyl)pyridine-3-carboxamide]",279
11,"Cc1cnc(N2CCCCCC2)c(C(=O)Nc2cccc(S(N)(=O)=O)c2)c1 [Example 23, 2-(azepan-1-yl)-5-methyl-N-(3-sulfamoyl-phenyl)nicotinamide]",112
12,"C[Si](C)(C)c1cc(C(=O)Nc2cccc(S(N)(=O)=O)c2)c(N2CCCCCC2)nc1OC(F)(F)F [Example 85, 2-(azepan-1-yl)-N-(3-sulfamoylphenyl)-6-(trifluoromethoxy)-5-(trimethylsilyl)nicotinamide]",1220
13,"Cc1ccnc(N2CCCCCC2)c1C(=O)Nc1cccc(S(N)(=O)=O)c1 [Example 175, 2-(azepan-1-yl)-4-methyl-N-(3-sulfamoyl-phenyl)pyridine-3-carboxamide]",290
14,"NS(=O)(=O)c1cccc(NC(=O)c2cc(C(F)(F)F)cnc2N2CCCC2)c1 [Example 63, 2-pyrrolidin-1-yl-N-(3-sulfamoylphenyl)-5-(trifluoromethyl)pyridine-3-carboxamide]",2000
15,"CC(C)(C)c1nc(N2CCCCC2)c(C(=O)Nc2cccc(S(N)(=O)=O)c2)cc1Cl [Example 40, 6-(tert-butyl)-5-chloro-2-(piperidin-1-yl)-N-(3-sulfamoylphenyl)nicotinamide]",1180
16,"COc1ccc(C(=O)Nc2cccc(S(C)(=O)=O)c2)c(N2CCCC(F)(F)CC2)n1 [Example 11, 2-(4,4-difluoroazepan-1-yl)-6-methoxy-N-(3-methylsulfonylphenyl) pyridine-3-carboxamide]",31
17,"NS(=O)(=O)c1cccc(NC(=O)c2cc(C(F)(F)F)cnc2N2CC3CCC(C2)O3)c1 [Example 52, 2-(8-oxa-3-azabicyclo[3.2.1]octan-3-yl)-N-(3-sulfamoyl-phenyl)-5-(trifluoro-methyl)pyridine-3-carboxamide]",301
18,"NC(=O)c1cccc(NC(=O)c2cc(C(F)(F)F)cnc2N2CCC3(CC3)C(F)(F)C2)c1 [Example 109, N-(3-carbamoylphenyl)-2-(8,8-difluoro-6-aza-spiro[2.5]octan-6-yl)-5-(trifluoro-methyl)-pyridine-3-carboxamide]",860
19,"NS(=O)(=O)c1cc(F)cc(NC(=O)c2cc(C(F)(F)F)cnc2N2CCCCC2)c1 [Example 114, N-(3-fluoro-5-sulfamoyl-phenyl)-2-(1-piperidyl)-5-(tri-fluoromethyl)-pyridine-3-carboxamide]",242
20,"CS(=O)(=O)c1cccc(NC(=O)c2cc(C(F)(F)F)cnc2N2C[C@H]3CCCC[C@H]3C2)c1 [Example 97, 2-[(3aS,7aR)-1,3,3a,4,5,6,7,7a-octahydroisoindol-2-yl]-N-(3-methyl-sulfonylphenyl)-5-(trifluoromethyl) pyridine-3-carboxamide]",49
21,"NS(=O)(=O)c1cccc(NC(=O)c2cc(-c3cccnc3)cnc2N2CCCCCC2)c1 [Example 34, 2-(azepan-1-yl)-5-(3-pyridyl)-N-(3-sulfamoyl-phenyl)pyridine-3-carboxamide]",603
22,"NS(=O)(=O)c1cccc(NC(=O)c2cc(C(F)(F)F)cnc2N2CCC3(CCCO3)CC2)c1 [Example 72, 2-(1-oxa-8-azaspiro[4.5]decan-8-yl)-N-(3-sulfamoyl-phenyl)-5-(trifluoro-methyl)pyridine-3-carboxamide]",6610
23,"CS(=O)(=O)c1cccc(NC(=O)c2cc(C(F)(F)F)cnc2N2CCC(F)CC2)c1 [Example 100, 2-(4-fluoro-1-piperidyl)-N-(3-methylsulfonylphenyl)-5-(trifluoromethyl)-pyridine-3-carboxamide]",227
24,"NS(=O)(=O)c1cccc(NC(=O)c2cc(C(F)(F)F)cnc2N2CC(C(F)(F)F)C2)c1 [Example 58, N-(3-sulfamoylphenyl)-5-(trifluoromethyl)-2-[3-(trifluoromethyl)-azetidin-1-yl]pyridine-3-carboxamide]",616

# Now those with a lower IC50, led by results:
row,IC50 [nM],Structure (SMILES)
1,8.4,"CS(=O)(=O)c1cccc(NC(=O)c2cc(C(F)(F)F)cnc2N2CCCC(F)(F)CC2)c1 [Example 94, 2-(4,4-difluoroazepan-1-yl)-N-(3-methylsulfonylphenyl)-5-(trifluoromethyl)-pyridine-3-carboxamide]"
2,6,"NS(=O)(=O)c1cccc(NC(=O)c2cc(C(F)(F)F)cnc2N2CCCCCCC2)c1 [Example 88, 2-(azocan-1-yl)-N-(3-sulfamoylphenyl)-5-(trifluoromethyl)-pyridine-3-carboxamide]"
3,7.8,"CS(=O)(=O)c1cccc(NC(=O)c2cc(Cl)cnc2N2CCCC(F)(F)CC2)c1 [Example 173, 5-chloro-2-(4,4-difluoroazepan-1-yl)-N-(3-(methylsulfonyl)phenyl)nicotinamide]"
4,24,"NS(=O)(=O)c1cccc(NC(=O)c2cnc(C3CC3)nc2N2CCCC(F)(F)CC2)c1 [Example 180, 2-cyclopropyl-4-(4,4-difluoroazepan-1-yl)-N-(3-sulfamoylphenyl)pyrimidine-5-carboxamide]"
5,7.3,"Cc1nc(N2CCCC(F)(F)CC2)c(C(=O)Nc2cccc(S(C)(=O)=O)c2)cc1C#N [Example 176, 5-cyano-2-(4,4-difluoroazepan-1-yl)-6-methyl-N-(3-methyl-sulfonylphenyl) pyridine-3-carboxamide]"
6,19,"COc1nc(N2CCCCCC2)c(C(=O)Nc2cccc(S(N)(=O)=O)c2)cc1Br [Example 156, 2-(azepan-1-yl)-5-bromo-6-methoxy-N-(3-sulfamoylphenyl)nicotinamide]"
7,14,"Cc1cc(C)c(C(=O)Nc2cccc(S(N)(=O)=O)c2)c(N2CCCCCC2)n1 [Example 4, 2-(azepan-1-yl)-4,6-dimethyl-N-(3-sulfamoyl-phenyl)pyridine-3-carboxamide]"
8,3.2,"Cc1nc(N2CCCCCC2)c(C(=O)Nc2cccc(S(N)(=O)=O)c2)cc1C(F)(F)F [Example 168, 2-(azepan-1-yl)-6-methyl-N-(3-sulfamoylphenyl)-5-(trifluoromethyl)nicotinamide]"
9,14,"NS(=O)(=O)c1cccc(NC(=O)c2cc(C(F)(F)F)cnc2N2CCCC3(C2)CC3(F)F)c1 (single isomer, unassigned) [Example 126, 2-[(3S or 3R)-2,2-difluoro-5-azaspiro[2.5]-octan-5-yl]-N-(3-sulfamoylphenyl)-5-(trifluoromethyl)-pyridine-3-carboxamide]"
10,21,"NS(=O)(=O)c1cccc(NC(=O)c2cc(C(F)(F)F)cnc2N2C[C@@H]3[C@H](C2)C(F)(F)C3(F)F)c1 [Example 133, N-(3-sulfamoylphenyl)-2-[(1R,5S)-6,6,7,7-tetrafluoro-3-azabicyclo-[3.2.0]heptan-3-yl]-5-(trifluoromethyl)-pyridine-3-carboxamide]"
11,3.5,"Cc1nc(N2CCCCCC2)c(C(=O)Nc2cccc(S(C)(=O)=O)c2)c(C)c1Cl [Example 7, 2-(azepan-1-yl)-5-chloro-4,6-dimethyl-N-(3-methylsulfonyl-phenyl)pyridine-3-carboxamide]"
12,17,"Cc1ccc(C(=O)Nc2cccc(S(N)(=O)=O)c2)c(N2CCCCCC2)n1 [Example 90, 2-(azepan-1-yl)-6-methyl-N-(3-sulfamoyl-phenyl)pyridine-3-carboxamide]"
